According to paper PMC11676817, “Antiproliferative and Morphological Analysis Triggered by Drugs Contained in the Medicines for Malaria Venture COVID-Box Against Toxoplasma gondii Tachyzoites” (Microorganisms, 2024):
Values joined by “and” are separate entries in the source; they are usually repeats but may differ in a detail not shown here. Identical values can stand only once. Like-named read-outs stand apart in the source and are kept apart here.

Tests used:
[1] = system: Toxoplasma gondii tachyzoites of the RH strain; experiment: microbe, parasite or virus in culture; format: cell-based; conditions: for activity at 0.5 µM: 500 nM; for activity at […]: 250 nM
[2] = system: T. gondii tachyzoites; experiment: Transmission electron microscopy of treated tachyzoites; format: cell-based, Toxoplasma gondii
Procedure: NHDF cultures infected with T. gondii were treated with compounds and fixed with 2.5% glutaraldehyde (EM Grade—Ted Pella Inc., Redding, CA, USA) in 0.1 M sodium cacodylate buffer pH 7.4 (Ted Pella Inc.). Cells were post-fixed with 1% osmium tetroxide, 1.25% potassium ferrocyanide, and 5 mM CaCl2, in 0.1 M sodium cacodylate buffer (pH 7.4). The sample fixation and processing for microscopy were performed as previously described. Samples were dehydrated in alcohol solutions of increasing concentrations (35–100%) and embedded in epoxy resin (Polybed 812, Polysciences). Ultrathin sections were collected in copper grids 300 mesh (Ted Pella Inc.), stained with uranyl acetate and lead citrate, and then observed in a Fei TecNai G2 120 kV Spirit Electron Microscope (FEI Company, Eindhoven, The Netherlands).

[3] = system: Toxoplasma gondii tachyzoites of the RH strain; conditions: 7 days of treatment
[4] = system: T. gondii tachyzoites; conditions: read-out: IC50 against T. gondii, cited from earlier work
[5] = Rat, cited from earlier work; for Cmax: read-out: Plasma concentration (Cmax)
[6] = Rat; ref Table S3 supplementary ref 3; cited from earlier work
[7] = cited from earlier work
[8] = system: T. gondii tachyzoites; experiment: Immunofluorescence microscopy of treated tachyzoites (aberrant cell division, rhoptry morphology); conditions: 24 h; for Effect on tachyzoite morphology and cell division (fluorescence microscopy): 125 nM; for Vacuoles with aberrant parasites: […] (250 nM)
Procedure: Rabbit anti-IMC1 (1:1000) and anti-ARO (1:1000) (kindly provided by Dr. Dominique Soldati, Universite de Geneve, Switzerland) were used to label the mother cell and daughter cell pellicles throughout the endodyogeny process and rhoptries, respectively. Mouse anti-SAG1 (1:200; kindly donated by Dr. Tiago Mineo, Universidade Federal de Uberlândia) was used to label the parasite plasma membrane. DAPI (2 µg/mL; Sigma-Aldrich, St. Louis, MO, USA) was used to label the DNA. […] After labeling with antibodies, the coverslips were mounted onto slides using Prolong gold (Life Technologies), and samples were examined on a Zeiss Axio Observer Z1 microscope (Baden-Württemberg, Germany) or Olympus BX60 microscope (Shinjuku City, Tokyo, Japan).

[9] = design: method as in Table S3 supplementary ref 2; conditions: Mouse and Rat; ref Table S3 supplementary ref 2; cited from earlier work
[10] = cited from earlier work; remark: listed apart in the source
[11] = system: Toxoplasma gondii tachyzoites of the RH strain; experiment: microbe, parasite or virus in culture; conditions: 168 h
[12] = system: T. gondii; conditions: in vivo administration, murine model of chronic toxoplasmosis; ref [23],[24]; cited from earlier work
[13] = in vitro; conditions: human
[14] = cited from earlier work; remark: listed apart in the source
[15] = cited from earlier work; remark: listed apart in the source
[16] = in vivo; cited from earlier work
[17] = estimated; ref [66]; cited from earlier work
[18] = Cytotoxicity assay in NHDF cells (MTS); conditions: human
[19] = design: method as in Table S3 supplementary ref 30; conditions: Rat and Monkey; ref Table S3 supplementary ref 30; cited from earlier work
[20] = read-out: IC50 (μM) in Tachyzoites, RH strain in NHDF cells, plaque assay
[21] = published in vivo studies, ref Table S3
[22] = Human, ref Table S3 supplementary refs 1, 4, 8, 11, 13, 15, 17, 18, 19, 23, 31
[23] = read-out: Plasma concentration (Cmax), Human, ref Table S3 supplementary refs 1, 4, 8, 11, 13, 15, 17, 18, 19, 23
[24] = read-out: IC50 against T. gondii proliferation, RH strain, 7 days of treatment
[25] = NHDF, read-out: IC50 (μM) in Tachyzoites, RH strain in NHDF cells, plaque assay, 7 days of treatment
[26] = Toxoplasma gondii, 1000 nM, 24 h of treatment, read-out: Proliferation index (%)
[27] = Toxoplasma gondii, 24 h of treatment, read-out: Proliferation index (%)

## COc1ccc(C[C@H]2NC[C@H](O)[C@H]2OC(C)=O)cc1 [(-)-Anisomycin]
[1]; 62.5 nM, 24 h of treatment
  Proliferation index (%): 60.56%
[1]; 125 nM, 24 h of treatment
  Proliferation index (%): 22.63%
[2]; 100 nM, 48 h
  Effect on T. gondii ultrastructure (TEM): alteration of the ER architecture
[3]; [20]
  IC50: 0.02 µM
[3]; read-out: IC50 against T. gondii proliferation, RH strain
  IC50: ≤ 0.03 µM
[4]; 48 h of treatment, ref Fichera, Bhopale, and Ross (1995) [43]
  IC50: 10 nM
[5]; ref Table S3 supplementary refs 3, 10, 12, 21
  Plasma concentration (Cmax): 2.75 ng/mL
[6]
  Does it cross the blood-brain barrier or is found in the brain?: Yes
[7]; [21]
  Brain availability: confirmed
[8]; 62.5 nM, IMC1 and DAPI labeling
  PVs with parasites with aberrant division: 22.5%
[8]
  Effect on tachyzoite morphology and cell division (fluorescence microscopy): complete arrestment of cell division

## CCN1CCN(Cc2ccc(Nc3ncc(F)c(-c4cc(F)c5nc(C)n(C(C)C)c5c4)n3)nc2)CC1 [Abemaciclib]
[9]
  Does it cross the blood-brain barrier or is found in the brain?: Yes
[10]; [22]
  Plasma concentration (Cmax): 492 ng/mL
[10]; [23]
  Cmax: 971 nM
[7]; [21]
  Brain availability: confirmed
[11]; [24]
  IC50: < 0.1 µM
[11]; [25]
  IC50: 0.09 ± 0.01 µM

## C=CCNc1nc(NCC=C)nc(N2CCN(C(c3ccc(F)cc3)c3ccc(F)cc3)CC2)n1 [Almitrine]
[1]; Toxoplasma gondii, 1000 nM, 24 h, read-out: Inhibition of parasite proliferation
  inhibition at 1 µM: 55 to 60%
[1]; [26]
  activity at 1 µM: 44.1%
[2]; 1 µM, 48 h
  Effect on T. gondii ultrastructure (TEM): induced myelin-like structures
[3]; [20]
  IC50: 0.33 ± 0.04 µM
[4]; 72 h of treatment, ref [23],[24]
  IC50: 420 nM and 320 nM
[12]
  Effect on the number of cysts: reduced the number of cysts
[10]; [22]
  Plasma concentration (Cmax): 286.2 ng/mL
[10]; [23]
  Cmax: 599 nM and ≤ 599 nM
[8]; 1 µM, IMC1 and DAPI labeling
  Vacuoles containing tachyzoites with cell division alteration: 23.9%

## Cc1cccc(/C=N/Nc2cc(N3CCOCC3)nc(OCCc3ccccn3)n2)c1 [Apilimod]
[1]; 0.5–1 µM, 24 h
  Inhibition of parasite proliferation, in words: modest inhibition
[1]; [27]
  activity at 0.5 µM: 99.7%
[1]; [26]
  activity at 1 µM: 73.2%
[13]
  CC50 at 7 days: 2120 ± 120 nM
  selectivity ratio at 7 days: 10
[14]; mouse, in vivo
  Cmax: 2530 nM
[15]; mouse, in vivo
  Does it cross the blood-brain barrier or is found in the brain?: Yes
[7]; in vivo
  Brain availability: confirmed
[11]; [25]
  IC50: 0.22 ± 0.06 µM

## Nc1nc(Nc2ccc3c(c2)CC[C@@H](N2CCCC2)CC3)nn1-c1cc2c(nn1)-c1ccccc1CCC2 [Bemcentinib]
[13]
  CC50 at 7 days: 970 ± 150 nM
  selectivity ratio at 7 days: 6
[10]; human, in vivo
  Cmax: 105 nM
  Plasma concentration (Cmax): 53 ng/mL
[16]
  Does it cross the blood-brain barrier or is found in the brain?: Yes
[7]; in vivo
  Brain availability: confirmed
[11]; [25]
  IC50: 0.15 ± 0.03 µM

## CO[C@@H]1[C@H](N(C)C(=O)c2ccccc2)C[C@H]2O[C@]1(C)n1c3ccccc3c3c4c(c5c6ccccc6n2c5c31)C(=O)NC4 [Midostaurin]
[1]; [27]
  activity at […]: 23.1%
  activity at 0.5 µM: 24.3%
[1]; [26]
  activity at 1 µM: 24.9%
[2]; 250 µM as printed, 48 h
  Effect on T. gondii ultrastructure (TEM): drastic effects on the parasite ultrastructure
[10]; [22]
  Plasma concentration (Cmax): 1210 ng/mL
[10]; [23]
  Cmax: 2120 nM
[17]
  Oral bioavailability: > 90%
[11]; [25]
  IC50: 0.08 µM
[18]
  CC50 at 7 days: 240 ± 20 nM
[8]
  Vacuoles with aberrant parasites: more than 80%
[8]; listed as midostaurin
  Vacuoles with aberrant parasites: around 80%

## CNC(=O)c1cc(Oc2ccc(NC(=O)Nc3ccc(Cl)c(C(F)(F)F)c3)c(F)c2)ccn1 [Regorafenib]
[13]
  CC50 at 7 days: 3030 ± 10 nM
  selectivity ratio at 7 days: 12
[10]; human, in vivo
  Cmax: 3900 nM
  Plasma concentration (Cmax): 1900 ng/mL
[16]
  Does it cross the blood-brain barrier or is found in the brain?: Yes
[7]; in vivo
  Brain availability: confirmed
[11]; [25]
  IC50: 0.25 ± 0.04 µM

## CC[C@@H](C(=O)[C@@H](C)[C@@H](O)[C@H](C)[C@@H]1O[C@@H]([C@@H](CC)C(=O)O)CC[C@@H]1C)[C@H]1O[C@]2(C=C[C@@H](O)[C@]3(CC[C@@](C)([C@H]4CC[C@](O)(CC)[C@H](C)O4)O3)O2)[C@H](C)C[C@@H]1C [Salinomycin]
[1]; Toxoplasma gondii, 31.2 nM, 24 h of treatment, read-out: Proliferation index (%)
  activity at 0.0312 µM: 79.1%
[1]; Toxoplasma gondii, 62.5 nM, 24 h of treatment, read-out: Proliferation index (%)
  activity at 0.0625 µM: 21.9%
[1]; Toxoplasma gondii, 125 nM, 24 h of treatment, read-out: Proliferation index (%)
  activity at 0.125 µM: 14.4%
[1]; Toxoplasma gondii, 250 nM (0.25 µM), 24 h, read-out: Inhibition of parasite proliferation
  inhibition at […]: > 90%
[1]; [27]
  activity at […]: 6.38%
[2]; 125 and 250 nM, 24 h
  Effect on T. gondii ultrastructure (TEM): extensive vacuolization process
[13]
  CC50 at 7 days: 1140 ± 170 nM
  selectivity ratio at 7 days: 16
[5]; ref Table S3 supplementary refs 28, 32
  Plasma concentration (Cmax): 40 ng/mL
[5]; ref Table S3 supplementary refs 3, 10, 12, 28, 32
  Cmax: 53.3 nM
[14]; Mice, ref Table S3 supplementary ref 27
  Plasma concentration (Cmax): 13.2 ng/mL
[14]; read-out: Plasma concentration (Cmax), Mouse/Mice, ref Table S3 supplementary refs 16, 27
  Cmax: 17.6 nM
[15]; Mice/Mouse, ref Table S3 supplementary refs 6, 16, 24, 27, 33
  Does it cross the blood-brain barrier or is found in the brain?: Yes
[7]; [21]
  Brain availability: confirmed
[11]; [24]
  IC50: < 0.1 µM
[11]; [25]
  IC50: 0.07 ± 0.01 µM
[8]
  Effect on tachyzoite morphology and cell division (fluorescence microscopy): vacuoles containing fragmented parasites

## CNC(=O)c1cc(Oc2ccc(NC(=O)Nc3ccc(Cl)c(C(F)(F)F)c3)cc2)ccn1 [Sorafenib]
[19]
  Does it cross the blood-brain barrier or is found in the brain?: Yes
[10]; [22]
  Plasma concentration (Cmax): 1001.3 ng/mL
[10]; read-out: Plasma concentration (Cmax), Human, ref Table S3 supplementary refs 20, 22, 25, 31
  Cmax: 2200 nM
[5]; ref Table S3 supplementary ref 29
  Plasma concentration (Cmax): 2410 ng/mL
[5]; ref Table S3 supplementary refs 21, 29
  Cmax: 5200 nM
[7]; [21]
  Brain availability: confirmed
[11]; [25]
  IC50: 0.56 ± 0.03 µM
